Experimental data reported in US20230398130A1, “METHODS AND COMPOSITIONS FOR DIFFERENTIATING STEM CELLS” (Massachusetts Institute of Technology, priority 2020, published 2023).
Where a name gives a salt, the structure may show the parent alone.

How the values were obtained:
ISC-enriched organoids [1] = test: Primary screen, 384-well 2.5-D organoid differentiation (ENR+CD, 6 days, Target Selective Inhibitor Library, vs whole-plate median): ATP (CellTiter-Glo 3D, CTG); conditions: for Z.CTG: standard z score of FC
ISC-enriched organoids [2] = test: Primary screen, 384-well 2.5-D organoid differentiation (ENR+CD, 6 days): basal lysozyme secretion (LYZ.NS); assay type: cell-based, murine
Text: High-throughput screening.

CCCCN1CCCCC1C(=O)Nc1c(C)cccc1C (stereo not drawn) [Bupivacaine HCl]
Z.CTG (ISC-enriched organoids [1]; Dose 10.00 uM): −0.870 | Z.CTG (ISC-enriched organoids [1]; primary screen, dose 0.08 uM): −0.008 | Z.CTG (ISC-enriched organoids [1]; primary screen, dose 0.40 uM): −0.517 | Z.CTG (ISC-enriched organoids [1]; primary screen, dose 2.00 uM): −0.717

CC(C)NCC(O)COc1ccc(COCCOC(C)C)cc1 (stereo not drawn) [Bisoprolol fumarate]
Z.CTG (ISC-enriched organoids [1]; primary screen, dose 0.08 uM): −0.249 | Z.CTG (ISC-enriched organoids [1]; primary screen, dose 0.40 uM): −0.136 | Z.CTG (ISC-enriched organoids [1]; primary screen, dose 2.00 uM): −0.048 | Z.CTG (ISC-enriched organoids [1]; primary screen, dose 10.00 uM): 0.139

CCC(COC(=O)c1cc(OC)c(OC)c(OC)c1)(c1ccccc1)N(C)C (stereo not drawn) [Trimebutine]
Z.CTG (standard z score) (ISC-enriched organoids [1]; dose 0.08 uM): 0.017 | Z.CTG (standard z score) (ISC-enriched organoids [1]; dose 0.40 uM): −0.483 | Z.CTG (standard z score) (ISC-enriched organoids [1]; dose 2.00 uM): −2.409 | Z.CTG (standard z score) (ISC-enriched organoids [1]; dose 10.00 uM): −2.545

O=C(O)/C=C/c1ccc(Cn2ccnc2)cc1 [Ozagrel]
Z.CTG (ISC-enriched organoids [1]; Dose 0.08 uM): 0.131 | Z.CTG (ISC-enriched organoids [1]; Dose 0.40 uM): 0.535 | Z.CTG (ISC-enriched organoids [1]; Dose 2.00 uM): −0.149 | Z.CTG (ISC-enriched organoids [1]; Dose 10.00 uM): 0.271

Clc1ccccc1CN1CCc2sccc2C1 [Ticlopidine HCl]
Z.CTG (standard z score) (ISC-enriched organoids [1]; dose 0.08 uM): −0.281 | Z.CTG (standard z score) (ISC-enriched organoids [1]; dose 0.40 uM): −0.097 | Z.CTG (standard z score) (ISC-enriched organoids [1]; dose 2.00 uM): −0.559 | Z.CTG (standard z score) (ISC-enriched organoids [1]; dose 10.00 uM): −0.013

Cc1sc2c(c1C)C(c1ccc(Cl)cc1)=N[C@@H](CC(=O)Nc1ccc(O)cc1)c1nnc(C)n1-2 [OTX015]
Z.CTG (ISC-enriched organoids [1]; Dose 0.08 uM): −0.092 | Z.CTG (ISC-enriched organoids [1]; Dose 0.40 uM): −0.952 | Z.CTG (ISC-enriched organoids [1]; Dose 2.00 uM): −1.638 | Z.CTG (ISC-enriched organoids [1]; Dose 10.00 uM): −2.169

Cc1ccccc1C(C(=O)NC1CCCCC1)N(C(=O)Cn1ccnc1C)c1cccc(F)c1 (stereo not drawn) [AGI-5198]
Z.CTG (ISC-enriched organoids [1]; primary screen, dose 0.08 uM): 0.738 | Z.CTG (ISC-enriched organoids [1]; primary screen, dose 0.40 uM): 0.368 | Z.CTG (ISC-enriched organoids [1]; primary screen, dose 2.00 uM): 0.671 | Z.CTG (ISC-enriched organoids [1]; primary screen, dose 10.00 uM): 0.802

COCCCC/C(=N\OCCN)c1ccc(C(F)(F)F)cc1 [Fluvoxamine maleate]
Z.CTG (ISC-enriched organoids [1]; Dose 0.08 uM): 0.274 | Z.CTG (ISC-enriched organoids [1]; Dose 0.40 uM): 0.607 | Z.CTG (ISC-enriched organoids [1]; Dose 2.00 uM): 0.504 | Z.CTG (ISC-enriched organoids [1]; Dose 10.00 uM): 0.330

CC(C)CC(=O)Nc1[nH]nc2c1CN(C(=O)C1CCN(C)CC1)C2(C)C [PHA-793887]
Z.CTG (ISC-enriched organoids [1]; Dose 0.08 uM): 0.271 | Z.CTG (ISC-enriched organoids [1]; Dose 0.40 uM): 0.314 | Z.CTG (ISC-enriched organoids [1]; Dose 2.00 uM): −0.344 | Z.CTG (ISC-enriched organoids [1]; Dose 10.00 uM): −2.045

NC(=O)c1cccc(-c2cccc(OC(=O)NC3CCCCC3)c2)c1 [URB597]
Z.LYZ.NS (standard z score) (ISC-enriched organoids [2]; dose 0.08 uM): 0.754 | Z.LYZ.NS (standard z score) (ISC-enriched organoids [2]; dose 0.40 uM): −0.007 | Z.LYZ.NS (standard z score) (ISC-enriched organoids [2]; dose 2.00 uM): 0.307 | Z.LYZ.NS (standard z score) (ISC-enriched organoids [2]; dose 10.00 uM): −0.123 | Z.CTG (standard z score) (ISC-enriched organoids [1]; dose 0.08 uM): 0.750 | Z.CTG (standard z score) (ISC-enriched organoids [1]; dose 0.40 uM): 0.154 | Z.CTG (standard z score) (ISC-enriched organoids [1]; dose 2.00 uM): 0.328 | Z.CTG (standard z score) (ISC-enriched organoids [1]; dose 10.00 uM): −0.051

CN(C)CCOc1ccc(/C(=C(/CCCl)c2ccccc2)c2ccccc2)cc1 [Toremifene Citrate]
Z.CTG (standard z score) (ISC-enriched organoids [1]; dose 0.08 uM): 0.822 | Z.CTG (standard z score) (ISC-enriched organoids [1]; dose 0.40 uM): 0.285 | Z.CTG (standard z score) (ISC-enriched organoids [1]; dose 2.00 uM): −2.417 | Z.CTG (standard z score) (ISC-enriched organoids [1]; dose 10.00 uM): −3.335

Cc1ccc(-c2cc(C(F)(F)F)nn2-c2ccc(S(N)(=O)=O)cc2)cc1 [Celecoxib]
Z.CTG (ISC-enriched organoids [1]; Dose 0.08 uM): −0.082 | Z.CTG (ISC-enriched organoids [1]; Dose 0.40 uM): −0.714 | Z.CTG (ISC-enriched organoids [1]; Dose 2.00 uM): −0.282 | Z.CTG (ISC-enriched organoids [1]; Dose 10.00 uM): −0.306

Cc1c(Cc2ccc3ccccc3n2)c2cc(F)ccc2n1CC(=O)O [OC000459]
Z.CTG (ISC-enriched organoids [1]; Dose 0.08 uM): 0.184 | Z.CTG (ISC-enriched organoids [1]; Dose 0.40 uM): −0.155 | Z.CTG (ISC-enriched organoids [1]; Dose 2.00 uM): 0.210 | Z.CTG (ISC-enriched organoids [1]; Dose 10.00 uM): 0.211

Cc1nc(C(=O)NCC(=O)O)c(O)c2ccc(Oc3ccccc3)cc12 [FG-4592]
Z.CTG (ISC-enriched organoids [1]; Dose 0.08 uM): 0.782 | Z.CTG (ISC-enriched organoids [1]; Dose 0.40 uM): 0.679 | Z.CTG (ISC-enriched organoids [1]; Dose 2.00 uM): 0.692 | Z.CTG (ISC-enriched organoids [1]; Dose 10.00 uM): 0.568

CCC(=O)NCC[C@@H]1CCc2ccc3c(c21)CCO3 [Ramelteon]
Z.CTG (standard z score) (ISC-enriched organoids [1]; Dose 0.08 uM, primary screen): −0.066 | Z.CTG (standard z score) (ISC-enriched organoids [1]; Dose 0.40 uM, primary screen): 0.369 | Z.CTG (standard z score) (ISC-enriched organoids [1]; Dose 2.00 uM, primary screen): −0.752 | Z.CTG (standard z score) (ISC-enriched organoids [1]; Dose 10.00 uM, primary screen): 0.358

COc1cc2nc(N3CCN(C(=O)C4COc5ccccc5O4)CC3)nc(N)c2cc1OC (stereo not drawn) [Doxazosin Mesylate]
Z.CTG (ISC-enriched organoids [1]; Dose 0.08 uM): 0.171 | Z.CTG (ISC-enriched organoids [1]; Dose 0.40 uM): −0.037 | Z.CTG (ISC-enriched organoids [1]; Dose 2.00 uM): 0.349 | Z.CTG (ISC-enriched organoids [1]; Dose 10.00 uM): 0.179

C#CCN[C@@H]1CCc2ccccc21 [Rasagiline Mesylate]
Z.CTG (standard z score) (ISC-enriched organoids [1]; Dose 0.08 uM, primary screen): 0.367 | Z.CTG (standard z score) (ISC-enriched organoids [1]; Dose 0.40 uM, primary screen): 0.246 | Z.CTG (standard z score) (ISC-enriched organoids [1]; Dose 2.00 uM, primary screen): 0.099 | Z.CTG (standard z score) (ISC-enriched organoids [1]; Dose 10.00 uM, primary screen): 0.249
